Source: US9993462B2, “Hydantoin derivative-containing pharmaceutical composition” (Chugai Seiyaku Kabushiki Kaisha, priority 2014, dated 2018)

Tests used:
ovariectomized rats = experiment: Bone mineral density after six weeks of repeated administration to ovariectomized rats; type: in vivo, rat; details: once a day for six weeks, hPTH(1-34) 0.9 nmol/kg subcutaneous
Description: Female Crl:CD(SD) rats obtained from Charles River Japan, Inc. were acclimated for one week or longer under standard laboratory conditions of 20° C. to 26° C. and 35% to 75% humidity, and then used in experiments. The rats had free access to tap water and a standard rodent diet (CE-2) (Clea Japan Inc.) containing 1.1% calcium, 1.0% phosphoric acid, and 250 IU/100 g vitamin D3.
Twelve-week old rats were subjected to removal of both ovaries by surgery (OVX) or to sham surgery (Sham). After the body weight was determined in the fourth week after surgery, the rats were divided into groups so that the average body weight of each group of six rats would be even. From the subsequent day after group division, each rat was subjected to repeated administration once a day for six weeks. The solvent for oral administration (vehicle) and the solvent for subcutaneous administration (PC buffer) were respectively administered orally and subcutaneously to rats of the Sham-Control group. Vehicle and PC buffer were orally and subcutaneously administered to rats of the OVX-Control group, respectively. To rats of OVX-Compound 7, the above-mentioned Compound 7 dissolved in the vehicle was orally administered at a dose of 30 mg/kg, and PC buffer was administered subcutaneously. To rats of the OVX-hPTH(1-34) group, the vehicle was orally administered, and hPTH(1-34) dissolved in PC buffer was subcutaneously administered at a dose of 0.9 nmol/kg.
The level of AUC (area under the curve for blood concentration vs. time) was the same as when 20 μg of Forteo®, a therapeutic agent clinically used for osteoporosis, is administered to humans when the administration dose for rats was set to 0.9 nmol/kg. The administration doses were 5 mL/kg for oral administration and 1 mL/kg for subcutaneous administration in all groups. The vehicle used was a composition prepared from 10% dimethyl sulfoxide (Wako Pure Chemical Industries, Ltd.), 10% Kolliphor EL (Sigma-Aldrich Japan), and 10% hydroxypropyl-β-cyclodextrin (Nihon Shokuhin Kako Co., Ltd), whose pH was adjusted to 10 using glycine (Wako Pure Chemical Industries, Ltd.) and sodium hydroxide (Wako Pure Chemical Industries, Ltd.). The PC buffer used was a composition prepared from 25 mmol/L phosphate-citrate buffer, 100 mmol/L NaCl, and 0.05% Tween80, adjusted to pH 5.0. […] The bone mineral densities of the lumbar spine and femur were determined using a dual X-ray bone mineral scanner (DCS-600EX, Aloka). The lumbar spine bone mineral density was determined by measuring the second to fourth lumbar vertebrae; and the femur bone mineral density was determined by vertically dividing the femur into ten parts, and measuring the three parts at the distal end of the knees. […]

[1] = test system: rabbit articular chondrocytes; experiment: Suppression of terminal differentiation of rabbit articular chondrocytes (alkaline phosphatase and alizarin red staining); type: cell-based; details: BMP-2 100 ng/mL, Compound 7 10^−7 to 10^−5 mol/L, PTH(1-34) 10^−10 to 10^−7 mol/L
Description: NZW rabbits (4-week old, Oriental Yeast Co., Ltd.) were euthanized, and then the articular cartilage of the lower leg bone was collected, and transferred to a 50-mL test tube (Nippon Becton Dickinson Company). PBS (Nacalai Tesque, Inc.) containing 1% trypsin (Wako Pure Chemical Industries, Ltd.) was added to this, and the soft tissue was digested at 37° C. for one hour. This was followed by centrifugation at 1,200 rpm for five minutes, then supernatant was removed and PBS(−) was added to suspend the cartilage tissue. This was centrifuged at 1,200 rpm for five minutes, followed by removal of the supernatant, and washed three times by suspending in PBS(−). This was centrifuged at 1,200 rpm for five minutes, and then the cell pellet was digested by treatment with DMEM (Life Technologies Japan, Ltd.) containing 0.2% Type II collagenase (CLS-2, Worthington Biochemical Corp.) at 37° C. for three hours. Fetal bovine serum (Life Technologies Japan, Ltd.) was added at 10% v/v to stop the reaction, and this was vigorously pipetted using a 10-mL pipette (Nippon Becton Dickinson Company) to isolate the chondrocytes. This was centrifuged at 1,200 rpm for five minutes, followed by removal of the supernatant, and washed three times by suspending in 10% FCS-containing DMEM, and the chondrocytes were seeded at 1×10^4 cells/well on an I-type collagen-coated 96-well culture plate (AGC TECHNO GLASS CO., LTD.). Medium exchange was performed three times a week; and after the cells reached confluency, they were cultured in DMEM containing 100 μg/mL L-ascorbic acid phosphate magnesium salt n-hydrate (Wako Pure Chemical Industries, Ltd.), 10 mmol/L β-glycerophosphate pentahydrate (Wako Pure Chemical Industries, Ltd.) and 10% FCS. The following conditions were used to culture the cells, and alkaline phosphatase staining (cultured for 14 days) and alizarin red staining (cultured for 21 days) were performed to evaluate terminal differentiation of chondrocytes.
Alkaline phosphatase staining was performed by discarding the medium, then washing the chondrocytes once with 200 mmol/L Tris-HCl pH8.2 buffer, staining the cells according to the protocol supplied with the alkaline phosphatase staining kit (Vector Red Alkaline Phosphatase Substrate Kit I, Vector Laboratories, Inc.), and taking photographs with an inverted microscope (Nikon Corporation) (4× objective).
Alizarin red staining was performed by discarding the medium, then washing the chondrocytes twice with PBS, fixing the cells using 100% ethanol (Wako Pure Chemical Industries Ltd.) for 15 minutes, discarding the ethanol, and then staining with 1% alizarin red S (Wako Pure Chemical Industries Ltd.) for 15 minutes, followed by washing with distilled water; and photographs were taken with an inverted microscope.

[2] = test system: human articular chondrocytes; experiment: Proteoglycan synthesis by human articular chondrocytes (35S-sulfate incorporation); type: cell-based; details: cultured for 13 days
Description: After purchase of cryopreserved human articular chondrocytes (Lot 2867, Cell Applications Inc.), the cells were thawed in a 37° C. water bath, 15 mL of Basal Medium supplemented with 10% Growth Supplement (Growth Medium, Cell Applications Inc.) was placed in a T75 culture flask (CORNING, Corning Japan K. K.) to culture the cells, and exchanged the next day with 15 mL of Growth Medium; and the cells were cultured for three days. Growth Medium was then removed, and HBSS (Cell Applications Inc.) was used to wash the chondrocyte layer. With addition of 1 mL of trypsin/EDTA solution (Cell Applications Inc.), this was left to stand at room temperature for approximately five minutes, and chondrocytes were detached from the flask. With 10 mL of Neutralization solution (Cell Applications Inc.) added, Bulker-Turk hemocytometer was used to determine the cell count, and the cells were then transferred to a 15-mL test tube for centrifugation (1,200 rpm for five minutes, Tomy Seiko Co., Ltd.) to produce a chondrocyte pellet. The supernatant was discarded, and the cells were placed in a 1.2% sodium alginate solution (25 mmol/L HEPES/150 mmol/L sodium chloride solution, pH7.0) at 2×10^6 cells/mL. This was drawn into a 1-mL syringe (Terumo Corporation) equipped with a 22G injection needle, five drops were added to each well of a 24-well plate (Corning Japan K.K.) containing 2 mL of 102 mmol/L aqueous CaCl2 solution, and this was left to stand for five minutes to form beads. Subsequently, this was washed three times with a 150 mmol/L sodium chloride solution and incubated for one day in Growth Medium, and the medium was exchanged with Basal Medium supplemented with 1% Growth supplement (Cell Applications Inc.). In this procedure, the following factors were added to the medium, and the cells were cultured for 13 days with three times of medium exchange performed per week.
On day 12 of culturing, ^35S-labeled sulfuric acid (PerkinElmer Japan Co., Ltd.) was added at 370 kBq/well, and the medium was collected 24 hours later into a test tube and stored at 4° C. To the alginate gel, a 55 mmol/L sodium citrate solution (Nacalai Tesque, Inc.; 1 mL/well) was added, and this was incubated at 37° C. for ten minutes for solation. This was collected into a microtube (Eppendorf AG) and then centrifuged (1,200 rpm, five minutes) to produce a chondrocyte pellet. […] The glass filter was transferred to a liquid scintillation counter vial, 5 mL of scintillator (Hionic-Fluor, PerkinElmer Japan Co., Ltd.) was added and radioactivity was measured on a liquid scintillation counter (TRI-CARB, PerkinElmer Japan Co., Ltd.).
The remaining 0.1 mL of the digested solution was used for DNA quantification. […]

Row | Substance | percentage of increase in femur bone mineral density with respect to the OVX-Control group (ovariectomized rats; Compound 7 30 mg/kg oral) | percentage of increase in lumbar spine bone mineral density with respect to the OVX-Control group (ovariectomized rats) | alkaline phosphatase activity (alkaline phosphatase staining) ([1]; cultured for 14 days) | alizarin red staining property (calcification) ([1]; cultured for 21 days) | radioactivity (proteoglycan synthesis, cpm/μg DNA) relative to the vehicle control ([2]; PTH(1-34) 10^−8 mol/L) | radioactivity (proteoglycan synthesis, cpm/μg DNA) relative to the vehicle control ([2]; TGF-β1 10 ng/mL)
1 | hPTH(1-34): Human PTH(1-34) peptide purchased from Peptide Institute, Inc.; positive control [reference compound] | 8% | 12% | suppressed alkaline phosphatase activity in a concentration-dependent manner | suppressed the alizarin staining property in a concentration-dependent manner | 6 fold | 
2 | TGF-β1: Positive control for proteoglycan synthesis, 10 ng/mL [reference compound] |  |  |  |  |  | 10 fold
